The record followed here is US7476691B2, “Sulfamate benzothiophene derivatives as steroid sulfatase inhibitors” (Laboratoire Theramex, priority 2003, dated 2009).

The subject of one data set is ovariectomized Wistar female rats. As to the kind of experiment: Antiuterotrophic/antisulfatase activity: inhibition of E1S stimulated uterus weight. The data set is classed as in vivo, rat. Particulars: ovariectomized rats, E1S 50 μg/kg/day s.c., compound oral 1 mg/kg/day for 4 days. Here is the method:
A short model, derived from Purohit's method, was developed for the evaluation in vivo of nonestrogenic steroid sulfatase inhibitors.
Wistar female rats were ovariectomized and left to rest for 4 weeks. Prior to treatment, the absence of cyclicity was checked by vaginal smears.
Animals were supplemented with estrone sulfate (E1S) at 50 μg/kg/day s.c., alone or combined with oral administration of potential sulfatase inhibitors, at 1 mg/kg/day for 4 days. The uteri were removed, freed of adjacent tissue and wet weighed.
The results are expressed as % of inhibition of the E1S induced stimulation.
The activity of Ex 55 on E1S stimulated uterus weight was evaluated in relation to the standard inhibitor 6,6,7 COUMATE from 0.03 mg/kg/day to 1 mg/kg/day p.o.
In this study, a last administration was performed 24 hours before the necropsy for E1S and E2 serum levels assays. The uteri were removed, freed of adjacent tissue, wet weighed and immediately deep frozen until the determination of sulfatase activity.
As for `NS(=O)(=O)Oc1ccc2cc(C3CCCCC3)[s+]([O-])c2c1` (centres unmarked) [Ex 42, Sulfamic acid, 2-cyclohexyl-benzothiophene-6-yl-1-oxide ester], the “% inhibition of the E1S induced stimulation (uterus weight)” value (shortened to “% inhibition”) was 38%.
Consider `NS(=O)(=O)Oc1ccc2c(c1)S(=O)(=O)C(C1CCCCC1)=C2` [Ex 44, Sulfamic acid, 2-cyclohexyl-benzothiophene-6-yl-1,1-dioxide ester], for which the “% inhibition” value was 70%.
In the case of `NS(=O)(=O)Oc1ccc2c(c1)S(=O)(=O)C(C1CCCCCCCCC1)=C2` [Ex 47, Sulfamic acid, 2-cyclodecyl-benzothiophene-6-yl-1,1-dioxide ester], the “% inhibition” value is recorded as 62%.
Regarding `CC1CCC(C2=Cc3ccc(OS(N)(=O)=O)cc3S2(=O)=O)CC1` (centres unmarked) [Ex 48, Sulfamic acid, 2-(4-methylcyclohexyl)-benzothiophene-6-yl-1,1-dioxide ester], the “% inhibition” value worked out at 60%.

Tested on in the next data set: not given
Experiment: not given
Details: not given
For `NS(=O)(=O)Oc1ccc2cc(C3CCCC3)sc2c1` [Ex 30, Sulfamic acid, 2-cyclopentyl-benzothiophene-6-yl ester], the melting point was determined as 110 °C.
On the same count and under the same terms, the value for `NS(=O)(=O)Oc1ccc2cc(C3CCCCCC3)sc2c1` [Ex 31, Sulfamic acid, 2-cycloheptyl-benzothiophene-6-yl ester] was 132 °C; that for `NS(=O)(=O)Oc1ccc2cc(C3CCCCCCC3)sc2c1` [Ex 32, Sulfamic acid, 2-cyclooctyl-benzothiophene-6-yl ester] was 126 °C.
In the case of `NS(=O)(=O)Oc1ccc2cc(C3CCCCCCCCC3)sc2c1` [Ex 33, Sulfamic acid, 2-cyclodecyl-benzothiophene-6-yl ester], the melting point stood at 98 °C.
Take `CC1CCC(c2cc3ccc(OS(N)(=O)=O)cc3s2)CC1` (centres unmarked) [Ex 34, Sulfamic acid, 2-(4-methylcyclohexyl)-benzothiophene-6-yl ester]: the melting point was 132 °C.
For the compound `CC1CCCCC1c1cc2ccc(OS(N)(=O)=O)cc2s1` (centres unmarked) [Ex 35, Sulfamic acid, 2-(2-methylcyclohexyl)-benzothiophene-6-yl ester], the melting point was 110 °C.
Still for that read-out and setting: the value for `CC1(C)CCCC1c1cc2ccc(OS(N)(=O)=O)cc2s1` (centres unmarked) [Ex 36, Sulfamic acid, 2-(2,2-dimethylcyclopentyl)-benzothiophene-6-yl ester] was 72 °C.
Same read-out and setting: to `NS(=O)(=O)Oc1ccc2cc(C3C4CC5CC(C4)CC3C5)sc2c1` (centres unmarked) [Ex 37, Sulfamic acid, 2-(2-adamantyl)-benzothiophene-6-yl ester] belongs 185 °C; to `NS(=O)(=O)Oc1ccc2c(c1)S(=O)(=O)C(C1CCCCC1)=C2` [Ex 44, Sulfamic acid, 2-cyclohexyl-benzothiophene-6-yl-1,1-dioxide ester], 180 °C.
The compound `NS(=O)(=O)Oc1ccc2c(c1)S(=O)(=O)C(C1CCCCCCCCC1)=C2` [Ex 47, Sulfamic acid, 2-cyclodecyl-benzothiophene-6-yl-1,1-dioxide ester] gave a melting point of 102 °C.
As to `CC1CCC(C2=Cc3ccc(OS(N)(=O)=O)cc3S2(=O)=O)CC1` (centres unmarked) [Ex 48, Sulfamic acid, 2-(4-methylcyclohexyl)-benzothiophene-6-yl-1,1-dioxide ester], the melting point was determined as 170 °C.

A further data set relates to prepubescent female rats. Kind of data set: Residual estrogenic activity in vivo (uterotrophic assay). Particulars: prepubescent female rats, oral, 1 mg/rat/day for 3 days.
Experimental: These compounds were checked for residual estrogenic activity in vivo in the classical uterotrophic assay after 3-day administration by oral route in prepubescent female rats.
Prepubescent female rats were orally treated at 1 mg/rat/day for 3 days. On the day following the last treatment, uteri were removed and wet weight were recorded.
The results are expressed as % of stimulation of uterus weight in comparison with controls.
As to `NS(=O)(=O)Oc1ccc2cc(C3CCCCC3)[s+]([O-])c2c1` (centres unmarked) [Ex 42, Sulfamic acid, 2-cyclohexyl-benzothiophene-6-yl-1-oxide ester], the “% stimulation of uterus weight in comparison with controls” value came to 0%.
The same measure, in the same setting: to `NS(=O)(=O)Oc1ccc2c(c1)S(=O)(=O)C(C1CCCCC1)=C2` [Ex 44, Sulfamic acid, 2-cyclohexyl-benzothiophene-6-yl-1,1-dioxide ester] belongs 0%; to `NS(=O)(=O)Oc1ccc2c(c1)S(=O)(=O)C(C1CCCCCCCCC1)=C2` [Ex 47, Sulfamic acid, 2-cyclodecyl-benzothiophene-6-yl-1,1-dioxide ester], 4%.
The same measure, in the same setting: the value for `CC1CCC(C2=Cc3ccc(OS(N)(=O)=O)cc3S2(=O)=O)CC1` (centres unmarked) [Ex 48, Sulfamic acid, 2-(4-methylcyclohexyl)-benzothiophene-6-yl-1,1-dioxide ester] was 3%.

A further data set addresses T1, estrone sulfatase (Homo sapiens, UniProt P08842).
T1 sequence (P08842 22-583): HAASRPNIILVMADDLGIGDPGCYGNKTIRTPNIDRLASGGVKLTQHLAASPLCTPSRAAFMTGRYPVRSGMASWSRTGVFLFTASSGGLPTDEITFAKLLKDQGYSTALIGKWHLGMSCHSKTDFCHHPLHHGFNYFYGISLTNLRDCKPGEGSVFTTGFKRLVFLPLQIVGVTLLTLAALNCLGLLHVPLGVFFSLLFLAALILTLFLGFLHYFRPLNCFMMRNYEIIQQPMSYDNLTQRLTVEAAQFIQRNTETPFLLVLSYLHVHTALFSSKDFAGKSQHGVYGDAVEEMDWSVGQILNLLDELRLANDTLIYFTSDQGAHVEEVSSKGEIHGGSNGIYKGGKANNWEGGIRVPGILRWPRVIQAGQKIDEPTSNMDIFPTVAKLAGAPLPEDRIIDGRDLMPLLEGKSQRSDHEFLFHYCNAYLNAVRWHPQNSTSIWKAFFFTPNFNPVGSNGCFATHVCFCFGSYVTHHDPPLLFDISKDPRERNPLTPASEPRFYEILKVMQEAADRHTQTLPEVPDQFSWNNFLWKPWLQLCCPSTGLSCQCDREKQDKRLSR
Kind of data set: Estrone sulfatase whole-cell assay on JEG-3 cells. The data set is classed as cell-based. Details: The JEG-3 cell line, derived from a human placental choriocarcinoma, is spontaneously very rich in human estrone sulfatase; endogenous in cells; host or cells: JEG-3 (human placental choriocarcinoma), intact cells. Conditions: 4 h treatment, 3H-E1S, read-out: IC50 (nM) ± S.E.M., inhibition of estrone sulfatase. Here is the method: (§1) Two in vitro models on whole cells were used. […] Moreover, these cells were used in the in vivo model of hormono-dependent induced xenografts.
(§2) Estrone Sulfatase Assay on Cells
(§3) Whole-cell assays were performed as originally described by Duncan et al. (Cancer Res., 1993, 53: 298-303) on intact MCF-7 cell monolayers. Assays were carried out with cells in logarithmic growth phase, on 96-well (JEG-3) or 24-well (MCF-7) microplates. Twenty-four hours (JEG-3) or 72 h (MCF-7) before studies, cells were seeded in decomplemented fetal calf serum (dFCS) supplemented medium. Then, the seeding medium was removed and the cells were rinsed with PBS to eliminate any trace of dFCS. Then, ^3H-E1S was added, followed by test compounds ranging from 10^−12 M to 10^−5 M. After 4 h (JEG-3) or 20 h (MCF-7) of treatment, the medium was transferred into either 96-deep-well microplates (JEG-3) or plastic tubes (MCF-7) and centrifuged at 200×g for 10 min to pellet cells before toluene extraction. A fraction of medium was used for toluene extraction in order to separate conjugated substrate and non-conjugated products. The radioactivity in the toluene phase was measured by liquid scintillation counting (LSC). Finally, estrone sulfatase activity was expressed in pmoles of ^3H-E1+^3H-E2 formed per 4 or 20 hours and per μg DNA and estrone sulfatase inhibition in percentage of control activity without inhibitor.
On to `NS(=O)(=O)Oc1ccc2cc(C3CCCC3)sc2c1` [Ex 30, Sulfamic acid, 2-cyclopentyl-benzothiophene-6-yl ester], for which the IC50 stood at 78.8 ± 39.8 nM.
On the same count and under the same terms, to `NS(=O)(=O)Oc1ccc2cc(C3CCCCCC3)sc2c1` [Ex 31, Sulfamic acid, 2-cycloheptyl-benzothiophene-6-yl ester] belongs 102 ± 58 nM.
The same measure, in the same setting: to `NS(=O)(=O)Oc1ccc2cc(C3CCCCCCC3)sc2c1` [Ex 32, Sulfamic acid, 2-cyclooctyl-benzothiophene-6-yl ester] belongs 434 ± 94.8 nM.
As for `NS(=O)(=O)Oc1ccc2cc(C3CCCCCCCCC3)sc2c1` [Ex 33, Sulfamic acid, 2-cyclodecyl-benzothiophene-6-yl ester], the IC50 was found to be 744 ± 140 nM.
On the same count and under the same terms, to `CC1CCC(c2cc3ccc(OS(N)(=O)=O)cc3s2)CC1` (centres unmarked) [Ex 34, Sulfamic acid, 2-(4-methylcyclohexyl)-benzothiophene-6-yl ester] belongs 318 ± 42.9 nM.
On the same count and under the same terms, the value for `CC1CCCCC1c1cc2ccc(OS(N)(=O)=O)cc2s1` (centres unmarked) [Ex 35, Sulfamic acid, 2-(2-methylcyclohexyl)-benzothiophene-6-yl ester] was 147 ± 16.3 nM; that for `CC1(C)CCCC1c1cc2ccc(OS(N)(=O)=O)cc2s1` (centres unmarked) [Ex 36, Sulfamic acid, 2-(2,2-dimethylcyclopentyl)-benzothiophene-6-yl ester] was 128 ± 14.2 nM.
Turning to `NS(=O)(=O)Oc1ccc2cc(C3C4CC5CC(C4)CC3C5)sc2c1` (centres unmarked) [Ex 37, Sulfamic acid, 2-(2-adamantyl)-benzothiophene-6-yl ester], the IC50 came to 92.4 ± 15.6 nM.
Same read-out and setting: to `NS(=O)(=O)Oc1ccc2cc(C3CCCCC3)[s+]([O-])c2c1` (centres unmarked) [Ex 42, Sulfamic acid, 2-cyclohexyl-benzothiophene-6-yl-1-oxide ester] belongs 7 ± 1.2 nM; to `NS(=O)(=O)Oc1ccc2c(c1)S(=O)(=O)C(C1CCCCC1)=C2` [Ex 44, Sulfamic acid, 2-cyclohexyl-benzothiophene-6-yl-1,1-dioxide ester], 10.9 ± 2.6 nM.
`NS(=O)(=O)Oc1ccc2c(c1)S(=O)(=O)C(C1CCCCCCCCC1)=C2` [Ex 47, Sulfamic acid, 2-cyclodecyl-benzothiophene-6-yl-1,1-dioxide ester]: the IC50 is 52.1 ± 4.4 nM.
On the same count and under the same terms, to `CC1CCC(C2=Cc3ccc(OS(N)(=O)=O)cc3S2(=O)=O)CC1` (centres unmarked) [Ex 48, Sulfamic acid, 2-(4-methylcyclohexyl)-benzothiophene-6-yl-1,1-dioxide ester] belongs 7.6 ± 1.3 nM.

The target of another data set is T1, estrone sulfatase. Kind of data set: Estrone sulfatase whole-cell assay on MCF-7 cells. Details: Whole-cell assays were performed as originally described by Duncan et al. (Cancer Res., 1993, 53: 298-303) on intact MCF-7 cell monolayers; endogenous in cells; host or cells: MCF-7 (human breast adenocarcinoma), intact monolayers. The data set is classed as cell-based. Particulars: 20 h treatment, 3H-E1S, read-out: IC50 (nM) ± S.E.M., inhibition of estrone sulfatase. Here is the method:
as §1, §2, §3
Regarding `NS(=O)(=O)Oc1ccc2cc(C3CCCCC3)[s+]([O-])c2c1` (centres unmarked) [Ex 42, Sulfamic acid, 2-cyclohexyl-benzothiophene-6-yl-1-oxide ester], the IC50 turned out to be 0.16 ± 0.03 nM.
On the same count and under the same terms, to `NS(=O)(=O)Oc1ccc2c(c1)S(=O)(=O)C(C1CCCCC1)=C2` [Ex 44, Sulfamic acid, 2-cyclohexyl-benzothiophene-6-yl-1,1-dioxide ester] belongs 0.24 ± 0.05 nM.
Turning to `NS(=O)(=O)Oc1ccc2c(c1)S(=O)(=O)C(C1CCCCCCCCC1)=C2` [Ex 47, Sulfamic acid, 2-cyclodecyl-benzothiophene-6-yl-1,1-dioxide ester], the IC50 worked out at 0.08 ± 0.01 nM.
Consider `CC1CCC(C2=Cc3ccc(OS(N)(=O)=O)cc3S2(=O)=O)CC1` (centres unmarked) [Ex 48, Sulfamic acid, 2-(4-methylcyclohexyl)-benzothiophene-6-yl-1,1-dioxide ester], for which the IC50 amounted to 0.09 ± 0.02 nM.
